Each structure is given as a SMILES string. pIC50: −log10 of the molar value.

Data set [1] addresses T1, fusion protein Tel/PDGF-Rβ (BaF3 Tel/PDGF cells) (Homo sapiens, UniProt P09619).
T1 construct: the transmembrane and intracellular part of the PDGF-Rβ receptor; N-terminal part of the Tel transcription factor (ETV6); expressed in transfected cells; host or cells: murine haematopoietic cell line BaF/3; the other entry of the earlier key: ETV6 (P41212, Transcription factor ETV6)
The data set is described as follows: Inhibition of PDGF-Rβ tyrosine kinase activity: proliferation of BaF3 Tel/PDGF cells (CellTiter-Glo, 72 h). Format: cell-based, murine. As to conditions: 72 hours incubation, read-out: IC50 (concentration that inhibits 50% of the proliferation of the BaF3 Tel/PDGF cells). As for the experimental part: Measurement of Inhibition of the Tyrosine Kinase Activity of the PDGF Beta (PDGF-Rβ) (Baf-3 tel/PDGFIRβ) Receptor:
This test consists in evaluating the effects of the compounds on the tyrosine kinase activity of the PDGF beta receptor.
The inhibitory effect of the compounds according to the invention towards the tyrosine kinase activity of the PDGF-R receptor was evaluated on the murine haematopoietic cell line BaF/3 transfected with a plasmid coding for the fusion protein Tel/PDGF-Rβ. This fusion protein is found in chronic myelomonocytic myeloid leukaemias (CMML). It comprises the N-terminal part of the Tel transcription factor and the transmembrane and intracellular part of the PDGF-Rβ receptor. This fusion protein is present in dimerized form (presence of an oligomerization domain in the N-terminal part of Tel) and, as a result, leads to constitutive activity of the kinase domain of PDGF-Rβ. This line BaF3 Tel/PDGF has been described in the literature several times and especially, in detailed manner, in the article by M. Carroll et al., PNAS, 1996, 93, 14845-14850.
(§1) The BaF3 Tel/PDGF cells are washed with phosphate buffer and inoculated in 96-well plates, at a density of 5×10^4 cells/ml (100 ml per well), in RPMI 1640 containing 10% FCS, in the presence or absence of the test compounds. After incubation for 72 hours, the viable cells are quantified by measuring the cellular ATP by means of the CellTiter-Glo® kit (Promega, Cat G7571). The cells are treated according to the instructions given by the kit manufacturer, and the luminescence is measured using a Luminoskan (Ascent, Labsystem) with the following parameters: measurement: single; integration time: 1000 ms, lag time: 5 s.
It is thus seen that the compounds according to the invention have inhibitory activity on the tyrosine kinase activity of PDGF-Rβ. This activity is given by the concentration that inhibits 50% of the proliferation of the BaF3 Tel/PDGF cells (IC50).
For orientation: Cellular ATP, detected with luciferase, serves as a proxy for viable cell number.

The target in data set [2] is fusion protein FIP1L1-PDGF-Rα (EOL-1 cell line) (Homo sapiens, UniProt P16234). The data set is described as follows: Inhibition of PDGF alpha receptor tyrosine kinase activity: proliferation of EOL-1 cells (CellTiter-Glo, 72 h). Format: cell-based. As to conditions: 72 hours incubation, read-out: IC50 (concentration that inhibits 50% of the proliferation of the EOL-1 cells). How it is done: Measurement of Inhibition of the Tyrosine Kinase Activity of the PDGF Alpha Receptor: The inhibitory effect of the compounds according to the invention towards the tyrosine kinase activity of the PDGF alpha receptor was evaluated on the EOL-1 cell line, which line is established from a leukaemia of constitutively active chronic eosinophilic leukaemia (CEL) type. The EOL-1 line has been described as expressing the fusion protein FIP1L1-PDGF-Rα and is sensitive to kinase inhibitors in proliferation tests (Cools J. et al., Blood 2004, 103, […]). The inhibitory activity is correlated to the inhibition of cell growth. […] After incubation for 72 hours, the viable cells are quantified by measuring the cellular ATP by means of the CellTiter-Glo® kit (Promega, Cat G7571). The cells are treated according to the instructions given by the kit manufacturer, and the luminescence is measured using a Luminoskan (Ascent, Labsystem) with the following parameters: measurement: single; integration time: 1000 ms, lag time: 5 s. It is thus seen that the compounds according to the invention have inhibitory activity on the tyrosine kinase activity of PDGF-Rα. This activity is given by the concentration that inhibits 50% of the proliferation of the EOL-1 cells.

Data set [3] has as its target T2, FLT3 receptor (MV4-11 cell line bearing an FLT3ITD mutant) (Homo sapiens, UniProt P36888, INS600HVDFREYEYD).
T2 construct: MV4-11 cell line, which line is established from a leukaemia of constitutively active AML type bearing an FLT3ITD mutant; endogenous in cells; host or cells: MV4-11
T2 sequence (P36888 with tags, fused parts or gaps INS600HVDFREYEYD): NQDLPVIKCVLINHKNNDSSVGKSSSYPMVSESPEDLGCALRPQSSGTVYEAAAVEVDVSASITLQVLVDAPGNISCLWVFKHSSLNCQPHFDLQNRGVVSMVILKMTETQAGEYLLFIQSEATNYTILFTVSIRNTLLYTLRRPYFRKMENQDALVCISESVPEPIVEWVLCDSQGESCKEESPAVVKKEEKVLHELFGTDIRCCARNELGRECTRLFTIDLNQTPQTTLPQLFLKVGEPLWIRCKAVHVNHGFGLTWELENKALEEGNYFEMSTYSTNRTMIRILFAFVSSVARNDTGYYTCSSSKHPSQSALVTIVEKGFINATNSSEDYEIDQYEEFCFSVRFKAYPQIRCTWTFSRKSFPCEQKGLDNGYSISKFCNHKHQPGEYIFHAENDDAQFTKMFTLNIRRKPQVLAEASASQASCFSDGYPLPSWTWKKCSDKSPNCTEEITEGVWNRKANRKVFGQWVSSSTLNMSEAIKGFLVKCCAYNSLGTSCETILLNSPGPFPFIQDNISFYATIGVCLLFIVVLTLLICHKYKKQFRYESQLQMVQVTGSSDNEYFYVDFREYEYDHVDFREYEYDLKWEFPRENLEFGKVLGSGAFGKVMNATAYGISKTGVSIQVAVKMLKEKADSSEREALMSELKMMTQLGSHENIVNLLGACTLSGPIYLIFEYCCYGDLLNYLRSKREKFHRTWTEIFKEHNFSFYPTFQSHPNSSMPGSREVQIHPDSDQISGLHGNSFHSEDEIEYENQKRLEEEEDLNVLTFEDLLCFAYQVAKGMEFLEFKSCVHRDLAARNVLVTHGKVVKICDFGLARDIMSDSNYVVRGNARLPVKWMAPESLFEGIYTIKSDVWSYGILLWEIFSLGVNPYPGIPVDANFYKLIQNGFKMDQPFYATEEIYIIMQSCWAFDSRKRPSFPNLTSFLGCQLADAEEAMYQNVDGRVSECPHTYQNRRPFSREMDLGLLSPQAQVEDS
The data set is described as follows: Inhibition of FLT3 receptor tyrosine kinase activity: proliferation of MV4-11 cells (CellTiter-Glo, 72 h). The data set is classed as cell-based. As to conditions: 72 hours incubation, read-out: IC50 (concentration that inhibits 50% of the proliferation of the MV4-11 cells). As for the experimental part: Measurement of Inhibition of the Tyrosine Kinase Activity of the FLT3 Receptor
The inhibitory effect of the compounds according to the invention towards the tyrosine kinase activity of the FLT3 receptor was evaluated on an MV4-11 cell line, which line is established from a leukaemia of constitutively active AML type bearing an FLT3ITD mutant. The inhibitory activity is correlated to the inhibition of cell growth, according to the protocols described by Spiekermann, K. et al., Blood, 2003, 101, (4) 1494-1504 and O'Farrell, A.-M. et al., Blood, 2003, 101, (9) 3597-3605.
as §1, with “MV4-11 cells” for “The BaF3 Tel/PDGF cells”, “with PBS” for “with phosphate”, “of 1×10^5” for “of 5×10^4”, “(100 μL” for “(100 ml”
The inhibitory activity with respect to the FLT3 receptor is given by the concentration that inhibits 50% of the proliferation of the MV4-11 cells.

T1 sequence (P09619 with tags, fused parts or gaps): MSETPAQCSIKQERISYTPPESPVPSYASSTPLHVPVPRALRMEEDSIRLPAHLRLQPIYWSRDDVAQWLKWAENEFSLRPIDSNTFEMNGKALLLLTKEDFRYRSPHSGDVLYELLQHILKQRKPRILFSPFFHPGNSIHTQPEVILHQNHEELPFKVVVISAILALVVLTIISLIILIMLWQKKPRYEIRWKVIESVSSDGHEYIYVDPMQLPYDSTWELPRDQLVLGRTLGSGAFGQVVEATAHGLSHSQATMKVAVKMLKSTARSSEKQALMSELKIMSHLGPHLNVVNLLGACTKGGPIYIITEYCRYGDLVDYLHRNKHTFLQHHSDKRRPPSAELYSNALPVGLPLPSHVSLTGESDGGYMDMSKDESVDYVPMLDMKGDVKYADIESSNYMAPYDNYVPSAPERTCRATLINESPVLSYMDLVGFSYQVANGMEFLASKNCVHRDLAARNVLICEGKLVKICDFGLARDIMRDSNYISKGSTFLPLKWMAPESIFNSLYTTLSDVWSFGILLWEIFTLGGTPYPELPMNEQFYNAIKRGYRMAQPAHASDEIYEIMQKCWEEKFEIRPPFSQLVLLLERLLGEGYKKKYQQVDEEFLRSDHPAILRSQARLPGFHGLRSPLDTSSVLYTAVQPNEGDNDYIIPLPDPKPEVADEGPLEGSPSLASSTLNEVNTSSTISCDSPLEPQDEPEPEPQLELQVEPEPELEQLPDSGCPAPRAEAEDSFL
fusion protein FIP1L1-PDGF-Rα (EOL-1 cell line), sequence (P16234 579-1089, change not shown): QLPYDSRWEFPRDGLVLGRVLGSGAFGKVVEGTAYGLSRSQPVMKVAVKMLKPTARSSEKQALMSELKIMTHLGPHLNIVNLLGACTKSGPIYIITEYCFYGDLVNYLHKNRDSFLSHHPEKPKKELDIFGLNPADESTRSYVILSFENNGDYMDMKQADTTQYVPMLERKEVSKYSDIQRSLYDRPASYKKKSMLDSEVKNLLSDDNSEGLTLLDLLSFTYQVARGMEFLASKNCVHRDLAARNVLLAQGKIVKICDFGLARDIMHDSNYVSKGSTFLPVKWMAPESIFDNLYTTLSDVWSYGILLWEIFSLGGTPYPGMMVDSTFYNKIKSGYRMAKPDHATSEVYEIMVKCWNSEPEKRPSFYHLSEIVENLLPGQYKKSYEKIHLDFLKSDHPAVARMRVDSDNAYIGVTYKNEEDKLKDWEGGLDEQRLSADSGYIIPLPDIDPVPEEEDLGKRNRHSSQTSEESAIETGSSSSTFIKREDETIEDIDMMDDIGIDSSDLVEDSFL
fusion protein FIP1L1-PDGF-Rα (EOL-1 cell line), sequence (Q6UN15 1-339 partner): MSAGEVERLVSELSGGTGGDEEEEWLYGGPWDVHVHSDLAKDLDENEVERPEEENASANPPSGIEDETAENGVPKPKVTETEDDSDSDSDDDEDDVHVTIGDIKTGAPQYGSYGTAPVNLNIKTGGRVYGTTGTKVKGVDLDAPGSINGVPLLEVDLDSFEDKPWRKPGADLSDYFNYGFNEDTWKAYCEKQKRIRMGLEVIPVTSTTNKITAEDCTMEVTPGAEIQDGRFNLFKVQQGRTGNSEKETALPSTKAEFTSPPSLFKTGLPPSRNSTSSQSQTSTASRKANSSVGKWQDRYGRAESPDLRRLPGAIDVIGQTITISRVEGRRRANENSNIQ

In turn, `CCn1c(N)c(C(=O)NC)c(=O)c2ccc(-c3ccc(CC(=O)Nc4nccs4)cc3)nc21` [compound 35, 2-amino-1-ethyl-N-methyl-4-oxo-7-{4-[2-oxo-2-(1,3-thiazol-2-ylamino)-ethyl]phenyl}-1,4-dihydro-1,8-naphthyridine-3-carboxamide] registered a melting point of 303 °C. Further, the pIC50 in data set [1] was 8.43. Further, the pIC50 in data set [2] is 9.10. Also, the pIC50 in data set [3] is 7.08.

The melting point is the temperature of the solid-liquid transition.

These data come from US8436011B2, “Pyridinopyridinone derivatives, preparation thereof and therapeutic use thereof” (Sanofi, priority 2008, dated 2013).
